Results as given in PMC11863921 (BMC Biology, 2025).
“Also recorded” adds a separate entry of the source.

What was measured:
[1] = target: Acanthaster cf. solaris relaxin family peptide receptor/leucine-rich repeat G protein-coupled receptor 3, N-terminally modified (prolactin signal peptide, FLAG tag) (Acanthaster cf. solaris)
ArubRXFP/LGR3 = test: Luminescence (GFP-aequorin G5A, GqS5) assay in CHO-K1 cells transfected with ArubRXFP/LGR3; format: cell-based, A. rubens; conditions: for luminescence response at 10^−5 M versus background: basal media as background; for EC50: 10^−14 to 10^−5 M, 35 s, three independent transfections, four-parameter fit, read-out: EC50 for induced luminescence; for luminescence response versus BSA control: 10–5 M, 30 s, one-way ANOVA with Bonferroni (***p < 0.001, *p < 0.1), Fig. S6; for dose-dependent triggering of luminescence: Fig. 6 A, B
Description: (§1) ArubRGP1 and ArubRGP2 were tested as ligands for ArubRXFP/LGR3 (isoform X2; XP_033631990.1) and ArubLGR4 (isoform X3; XP_033635731.1) by co-transfection of CHO-K1 cells stably expressing the green fluorescent protein (GFP) – apoaequorin construct G5A [25] with the chimeric G-protein Gqs5, which is a Gq-type protein modified to incorporate Gs-type sequences that enable it to interact with GPCRs that preferentially couple to Gs-type G-proteins. Synthetic ArubRGP1 or ArubRGP2 were initially tested at a concentration of 10^−5 M, comparing with luminescence measured in transfected cells incubated in basal media without the addition of ArubRGP1 or ArubRGP2.
(§2) A. rubens RGP1 and RGP2 (ArubRGP1, ArubRGP2) were custom synthesized with a purity of > 95%, as reported previously. Two genes encoding relaxin receptor-related proteins were identified in A. rubens and, informed by phylogenetic analysis, these were named ArubRXFP/LGR3 and ArubLGR4. Then cDNAs encoding these proteins were custom synthesized with the inclusion of a 5′ partial Kozak translation initiation sequence (GCCACC) and incorporated into the mammalian expression vector pcDNA 3.1( +) (Genscript, Hong Kong) (Additional file 18: Dataset S11). Likewise, a cDNA encoding an N-terminally modified form of ArubRXFP/LGR3 incorporating an N-terminal signal peptide from the bovine prolactin precursor was also synthesized (with codon optimization for mammalian expression) (Genewiz, Takeley, UK) and this is referred to henceforth as ArubRXFP/LGR3(modified) (Additional file 18: Dataset S11). Chinese hamster ovary cells (CHO-K1) stably expressing the calcium-sensitive aequorin fusion protein G5A were used as an expression system. This cell line was supplied by Prof. Gaspar Jékely (University of Heidelberg, Germany) and tested negative for mycoplasma contamination using a MycoAlert PLUS kit (Lonza, Switzerland). The CHO-K1 cells were cultured in a culture medium comprising DMEM/F12, 10% fetal bovine serum, antibiotic–antimycotic, and 20 µg/mol Geneticin G418 sulfate (all purchased from Thermo Fisher scientific, Oxford, UK; cat no. 11039047, 10,082,147, 15,240,062, and 10,131,035, respectively.) When the cells reached 80% confluency, they were co-transfected with plasmids containing cDNAs encoding ArubRXFP/LGR3, ArubRXFP/LGR3(modified), or ArubLGR4 and a plasmid encoding the chimeric G-protein GqS5 (Addgene, Watertown USA), which enables GPCRs that preferentially couple to Gq-type or Gs-type proteins to signal via the phospholipase-C signaling pathway.
AruRGP1 and AruRGP2 were tested as ligands for the A. rubens receptors using luminescence-based assays, which have been described previously. Thus, 48 h after transfection, cells were detached by using PBS buffer (pH7.4; Thermofisher Scientific, Oxford, UK; cat no.10010023) supplemented with a final concentration of 5 mM EDTA pH8.0 (Thermo Fisher Scientific, Oxford, UK; cat no.15575020). Cells were then washed with DMEM/F12 buffer and then incubated with […] coelenterazine-H (Thermo Fisher Scientific, Oxford, UK; cat no. C6780) at room temperature with stirring for 3 h. ArubRGP1 or ArubRGP2 were prepared at concentrations ranging from 10^−14 to 10^−5 M and then were pipetted into 96-well plates (Costar Assay microplate, REF: 3903 or Falcon 96 well microplate, Code: 353,377). A FLUOstar Omega Plate Reader (BMG LABTECH; FLUOstar Omega Series multi-mode microplate reader) with injectors was used to sequentially add transfected CHO-K1 cells to each test well of the microtiter plate and luminescence was recorded over a 35-s period. Luminescence data were integrated over the 35 s measurement period and the mean of the triplicate measurements was calculated. Responses were normalized to the maximum response obtained in each experiment (100% activation) and to luminescence measured with the vehicle media (0% activation) (Additional file 19: Dataset S12). […]

modified ArubRXFP/LGR3 = test: Luminescence (GFP-aequorin G5A, GqS5) assay in CHO-K1 cells transfected with modified ArubRXFP/LGR3; format: cell-based, A. rubens; conditions: Fig. 6 C, D
Excerpt: Thus, modified ArubRXFP/LGR3 was similar in this respect to the modified AsolRXFP/LGR3 protein (Fig. 5).
A. rubens RGP1 and RGP2 (ArubRGP1, ArubRGP2) were custom synthesized with a purity of > 95%, as reported previously. Two genes encoding relaxin receptor-related proteins were identified in A. rubens and, informed by phylogenetic analysis, these were named ArubRXFP/LGR3 and ArubLGR4. Then cDNAs encoding these proteins were custom synthesized with the inclusion of a 5′ partial Kozak translation initiation sequence (GCCACC) and incorporated into the mammalian expression vector pcDNA 3.1( +) (Genscript, Hong Kong) (Additional file 18: Dataset S11). […]
(§3) AruRGP1 and AruRGP2 were tested as ligands for the A. rubens receptors using luminescence-based assays, which have been described previously. […] A FLUOstar Omega Plate Reader (BMG LABTECH; FLUOstar Omega Series multi-mode microplate reader) with injectors was used to sequentially add transfected CHO-K1 cells to each test well of the microtiter plate and luminescence was recorded over a 35-s period. Luminescence data were integrated over the 35 s measurement period and the mean of the triplicate measurements was calculated. Responses were normalized to the maximum response obtained in each experiment (100% activation) and to luminescence measured with the vehicle media (0% activation) (Additional file 19: Dataset S12). […]

[2] = system: CHO-K1 cells transfected with an empty pcDNA3.1 + vector; test: Luminescence (GFP-aequorin G5A, GqS5) assay in CHO-K1 cells transfected with empty pcDNA3.1 vector; format: cell-based, Chinese hamster; conditions: 10^−14 to 10^−5 M, Fig. 6 G, H
Description: as §1, with “ArubRGP2. […]” for “ArubRGP2.”
as §3

ArubLGR4 = test: Luminescence (GFP-aequorin G5A, GqS5) assay in CHO-K1 cells transfected with ArubLGR4; format: cell-based, A. rubens; conditions: for luminescence versus basal media: 10^−5 M; for luminescence response: 10^−14 to 10^−5 M, Fig. 6 E, F
Description: as §1
as §2, with “The CHO-K1 cells were cultured in a culture medium comprising DMEM/F12, 10% fetal bovine serum, antibiotic–antimycotic, and 20 µg/mol Geneticin G418 sulfate (all purchased from Thermo Fisher scientific, Oxford, UK; cat no. 11039047, 10,082,147, 15,240,062, and 10,131,035, respectively.) When the cells reached 80% confluency, they were co-transfected with plasmids containing cDNAs encoding ArubRXFP/LGR3, ArubRXFP/LGR3(modified), or ArubLGR4 and a plasmid encoding the chimeric G-protein GqS5 (Addgene, Watertown USA), which enables GPCRs that preferentially couple to Gq-type or Gs-type proteins to signal via the phospholipase-C signaling pathway.” left out
as §3

[3] = target: modified ArubRXFP/LGR3 (N-terminal region with the predicted internal signal peptide replaced by the prolactin precursor signal peptide) (Asterias rubens)
[4] = target: Asterias rubens relaxin family peptide receptor/leucine-rich repeat G protein-coupled receptor 3 (isoform X2) (Asterias rubens)
[5] = target: Asterias rubens relaxin family peptide receptor/leucine-rich repeat G protein-coupled receptor 3 (isoform X2) (Asterias rubens); remark: listed apart in the source

Substance | percentage of forskolin-induced cAMP levels (CRE reporter) in CHO-AsolRXFP/LGR3 cells at 10 µM AsolRGP2; no dose-response curve could be fitted (% forskolin response) [1] | luminescence response at 10^−5 M versus background (ArubRXFP/LGR3) | EC50 (ArubRXFP/LGR3) | luminescence response versus BSA control (ArubRXFP/LGR3) | dose-dependent triggering of luminescence (ArubRXFP/LGR3) | dose-dependent triggering of luminescence (modified ArubRXFP/LGR3) | luminescence response [2] | luminescence versus basal media (ArubLGR4) | luminescence response (ArubLGR4) | EC50 of peptide-induced luminescence (GFP-apoaequorin G5A, chimeric G-protein GqS5) in CHO-K1 cells transfected with modified ArubRXFP/LGR3 [3] | EC50 of peptide-induced luminescence (GFP-apoaequorin G5A, chimeric G-protein GqS5) in CHO-K1 cells transfected with ArubRXFP/LGR3, 10^-14 to 10^-5 M [4] | EC50 of peptide-induced luminescence (GFP-apoaequorin G5A, chimeric G-protein GqS5) in CHO-K1 cells transfected with ArubRXFP/LGR3 [5]
Acanthaster cf. solaris relaxin-like gonad-stimulating peptide 2 (ligand) | 12.2 |  |  |  |  |  |  |  |  |  |  | 
Asterias rubens Relaxin-like gonad-stimulating peptide 1 [ArubRGP1] |  | approximately twice the background luminescence | 22.5 nM | significantly higher | trigger dose-dependent luminescence | trigger dose-dependent luminescence | no response; also recorded: do not trigger luminescence | not significantly different | no response; also recorded: do not trigger luminescence |  |  | 
Asterias rubens relaxin-like gonad-stimulating peptide 1 (ligand) |  |  |  |  |  |  |  |  |  | 110 nM | 22.5 nM | 25 nM
Asterias rubens Relaxin-like gonad-stimulating peptide 2 [ArubRGP2] |  | approximately twice the background luminescence | 383 nM | significantly higher | trigger dose-dependent luminescence | trigger dose-dependent luminescence | no response; also recorded: do not trigger luminescence | not significantly different | no response; also recorded: do not trigger luminescence |  |  | 
